The values that follow come from paper PMC10523748, “Cytotoxicity, acute and sub-chronic toxicities of the leaves of Bauhinia thonningii (Schumach.) Milne-Redh. (Caesalpiniaceae)” (BMC Complementary Medicine and Therapies, 2023).

For series [1], the system named is CCRF-CEM cells. Details: method as in PMID 12064912. Conditions: cited from earlier work.
Another series relates to CEM/ADR5000 cells. Details: method as in PMID 12064912. The conditions noted are these: cited from earlier work.
In another series the test system is U87MG glioblastoma cells. Kind of series: RRA cytotoxicity, U87MG. Conditions: Homo sapiens, U-87 MG, 72 h.
For series [2], the system named is HepG2 hepatocarcinoma cells. Kind of series: RRA cytotoxicity, HepG2. Conditions: Homo sapiens, HepG2, 72 h.
Series [3] deals with CEM/ADR5000 leukemia cells (P-gp-overexpressing). The series is described as follows: RRA cytotoxicity, CEM/ADR5000. The conditions noted are these: for IC50: Homo sapiens, ADR5000, 72 h; for Degree of resistance: IC50 CEM/ADR5000 versus CCRF-CEM.
For a further series, the system named is U87MG.ΔEGFR cells. Kind of series: RRA cytotoxicity, U87MG.ΔEGFR. The conditions noted are these: for IC50: Homo sapiens, 72 h.
Series [4] relates to HCT116 p53^+/+ colon adenocarcinoma cells. Kind of series: RRA cytotoxicity, HCT116 p53^+/+. The conditions noted are these: Homo sapiens, HCT-116, 72 h.
In another series the test system is HCT116 p53^−/− cells. Kind of series: RRA cytotoxicity, HCT116 p53^−/−. The conditions noted are these: for IC50: Homo sapiens, HCT-116, 72 h.
For the next series, the system named is MDA-MB-231-BCRP cells. Kind of series: RRA cytotoxicity, MDA-MB-231-BCRP. Conditions: for IC50: Homo sapiens, MDA-MB-231/BCRP, 72 h; for Degree of resistance: IC50 MDA-MB-231-BCRP versus MDA-MB-231-pcDNA.
The test system of series [5] is MDA-MB-231-pcDNA breast adenocarcinoma cells. The series is described as follows: RRA cytotoxicity, MDA-MB-231-pcDNA. Conditions: Homo sapiens, 72 h.
The next series relates to normal AML12 hepatocytes. The series is described as follows: RRA cytotoxicity, normal AML12 hepatocytes. The conditions noted are these: Mus musculus, AML12, 72 h.
Series [6] deals with 9 tested cancer cell lines. Kind of series: RRA cytotoxicity, whole panel of cancer cell lines. The conditions noted are these: 9 cancer cell lines, up to 50 µM.
A further series concerns CCRF-CEM leukemia cells. Kind of series: Resazurin reduction assay (RRA) cytotoxicity, CCRF-CEM. The conditions noted are these: 72 h. For orientation: Alamar Blue is a resazurin reagent that responds to reducing activity.
Series [7] deals with CCRF-CEM cells. The series is described as follows: Apoptosis, annexin V/PI staining and flow cytometry. Conditions: 24 h, non-treated cells 0.4%. The series is classed as cell-based, human. On the procedure:
The concentration of samples used and CCRF-CEM cells were those as reported above under the standard cell culture conditions. To detect the apoptotic cells, the fluorescein isothiocyanate (FITC)-conjugated annexin V/PI assay kit (eBioscience™ Annexin V; Invitrogen, San Diego, USA) was applied to treated cells after 24 h incubation followed by the measurements with BD Accury C6 Flow Cytometer (BD Biosciences). The assays were performed separately three times and in triplicate.

Series [8] deals with caspases 3/7 in CCRF-CEM cells. The series is described as follows: Caspase-Glo 3/7 assay. The class given is cell-based, human. The conditions noted are these: 6 h, versus untreated cells. On the procedure:
(§1) The amount of the treated cells was 1.5 × 10^4 cells for the caspase 3/7 assay or 3 × 10^4 cells for the caspase 8 and caspase 9 assays in 100 µL. The treated cells were then incubated for 6 h under the standard cell culture conditions as described above. Subsequently, the activity of caspases was detected by a spectrophotometry measurement of luminescence using 100 µL caspase solution from the Caspase-Glo 3/7, 8, and 9 Assay kits (Promega, Mannheim, Germany) with an Infinite M2000 ProTM plate reader (Tecan).

For series [9], the system named is caspase 8 in CCRF-CEM cells. Kind of series: Caspase-Glo 8 assay. The conditions noted are these: 6 h, versus untreated cells. The series is classed as cell-based, human. Here is the method:
as §1

Series [10] has as its system caspase 9 in CCRF-CEM cells. Kind of series: Caspase-Glo 9 assay. The series is classed as cell-based, human. Conditions: 6 h, versus untreated cells. Here is the method: as §1
The subject of series [11] is mitochondrial membrane potential (MMP) of CCRF-CEM cells. Kind of series: MMP analysis, JC-1 staining and flow cytometry. The class given is cell-based, human. The conditions noted are these: 24 h. Here is the method:
(§2) The treated cells (1 mL; 1 × 10^6 cells) were incubated for 24 h under the standard cell culture condition. Cells were further stained for 30 min with 10 µL of staining solution ([…] or H2DCFH-DA solution for ROS evaluation) according to the manufacturer’s protocol. Using the LSRFortessa FACS analyzer (Becton–Dickinson, Heidelberg, Germany), the amount of 1 × 10^4 cells was further measured as described earlier.
On the technique in general: Flow cytometry measures light scatter and fluorescence of single cells or particles in a stream.

Series [12] deals with reactive oxygen species (ROS) production in CCRF-CEM cells. Kind of series: ROS production, H2DCFH-DA staining and flow cytometry. The series is classed as cell-based, human. The conditions noted are these: 24 h. Here is the method: as §2
Series [13] concerns human hepatocellular carcinoma HuH7 cells. Conditions: cited from earlier work.
In the next series the test system is MCF-7 cells. Details: method as in PMID 22213398. Conditions: cited from earlier work.
Series [14] relates to cancer cell lines tested in the current work. Details: method as in PMID 30703492. Conditions: cited from earlier work.

Each structure is given as a SMILES string. Where two headings read alike, the source gives them in different places.

As usually defined, the IC50 is the point on the concentration scale where inhibition reaches its midpoint. One may read the melting point as the temperature of the solid-liquid transition.

For `O=c1c(O)c(-c2ccc(O)c(O)c2)oc2cc(O)cc(O)c12` [Compound 4, quercetin], the IC50 was 25 µM with CCRF-CEM cells [1]; 101 µM in the series on CEM/ADR5000 cells; over 50 µM in the series with U87MG glioblastoma cells; over 50 µM in series [2]; over 50 µM in [3]; over 50 µM in the series on U87MG.ΔEGFR cells. Further, the IC50 in series [4] was over 50 µM; in the series with HCT116 p53^−/− cells, over 50 µM; in the series on MDA-MB-231-BCRP cells, over 50 µM; in [5] it was 42.3 ± 3.29 µM; in the series on normal AML12 hepatocytes, over 50 µM; in the series with CCRF-CEM leukemia cells, 27.3 ± 3.12 µM. The IC50 with CCRF-CEM leukemia cells (Homo sapiens) came out at 27 µM. For the same compound, the Degree of resistance is on record as over 1.83 in series [3] and over 1.18 in the series with MDA-MB-231-BCRP cells. Also, the “Cytotoxic activity in the panel” value in series [6] was “selectively active”.

In turn, `COc1c(-c2ccc(O)cc2)oc2c(C)c(O)c(C)c(O)c2c1=O` [Compound 8, 6,8-C-dimethylkaempferol-3-methyl ether] registered a melting point of 250 to 253 °C. The “Early apoptosis, annexin V (+)/PI (-) cells, highest proportion” value with CCRF-CEM cells [7] is given as at most 67.3%. Also, the “Increase of caspases 3/7 activity” value in [8] stood at 4.41 fold. Also, the “Increase of caspase 8 activity” value in series [9] is 3.63 fold. Also, in series [10], the “Increase of caspase 9 activity” value amounted to 4.22 fold. For the same compound, in series [11], the “Effect on the integrity of the MMP” value is “strongly altered the integrity of the MMP”. In addition, in [11] (2 × IC50, untreated control 92.6%), the “Q1, cells with undamaged (intact) MMP” value stood at 23.0%. Further, the “Effect on ROS production” value in series [12] is “enhanced higher ROS production”. In addition, in series [12] (2 × IC50, untreated cells 0.6%), the ROS level came to 24.50%. In the series with U87MG glioblastoma cells, the IC50 turned out to be 8.01 ± 0.84 µM. Inhibition in [2] was half-maximal at 19.4 ± 2.07 µM (IC50). In series [3], this compound showed an IC50 of 2.42 ± 0.3 µM and a Degree of resistance of 0.80. The compound further displayed a half-inhibitory concentration (IC50) in the series with U87MG.ΔEGFR cells of 15.4 ± 0.64 µM. In the series with U87MG.ΔEGFR cells (IC50 U87MG.ΔEGFR versus U87MG), this compound registered a Degree of resistance of 1.92. Also, 9.59 ± 0.84 µM corresponded to half-maximal inhibition in series [4] (IC50). This compound returned an IC50 in the series on HCT116 p53^−/− cells of 3.41 ± 0.35 µM. Moreover, the Degree of resistance with HCT116 p53^−/− cells (IC50 HCT116 p53^−/− versus HCT116 p53^+/+) came out at 0.36. In the series with MDA-MB-231-BCRP cells, this compound displayed an IC50 of 8.26 ± 0.66 µM and a Degree of resistance of 3.53. Further, it took 2.34 ± 0.31 µM to reach half-maximal inhibition in series [5] (IC50). Moreover, the IC50 in the series on normal AML12 hepatocytes was over 50 µM. Besides, the IC50 in the series with CCRF-CEM leukemia cells (Homo sapiens) was determined as 3.03 ± 0.37 µM.

Consider `C[C@H]1[C@H](C)CC[C@]2(C(=O)O)CC[C@]3(C)C(=CC[C@@H]4[C@@]5(C)CC[C@H](O)C(C)(C)[C@@H]5CC[C@]43C)[C@H]12` [Compound 9, ursolic acid], for which the IC50 was 75 µM in [13]; 15.6 µM in the series with MCF-7 cells (MCF-7, converted from μg/mL, read-out: IC50); 7.1 µg/mL with MCF-7 cells (MCF-7).

Turning to `CCC(CCC(C)C1CCC2C3CC=C4CC(OC5OC(CO)C(O)C(O)C5O)CCC4(C)C3CCC12C)C(C)C` [Compound 10, 3-O-β-D-glucopyranoside of β-sitosterol], the IC50 in series [14] was over 100 µM; in the series on U87MG glioblastoma cells, over 50 µM; in series [2] it was over 50 µM; in series [3], over 50 µM; in the series with U87MG.ΔEGFR cells it was over 50 µM; in series [4], over 50 µM. In addition, the IC50 with HCT116 p53^−/− cells is over 50 µM; with MDA-MB-231-BCRP cells, over 50 µM; in series [5], over 50 µM; in the series on normal AML12 hepatocytes it was over 50 µM; with CCRF-CEM leukemia cells (Homo sapiens), 44.3 ± 3.91 µM. Besides, the Degree of resistance in [3] is over 1.13. The “Cytotoxic activity in the panel” value in [6] is “selectively active”.
